Source: US20080293931A1, “Methods and compositions for the removal of nucleic acid amplification inhibitors” (priority 2006, published 2008)
Where “and” joins values, the source holds several entries; their conditions need not be identical. Equal entries are not always repeated. Structures can show the parent of a compound that is named as a salt. Where two headings read alike, the source gives them in different places.

How the values were obtained:
[1] = tested on: B. anthracis Sterne DNA; conditions: PIR (thiamine) treated; for B. anthracis per rxn: at 1st positive dilution; for 1st DNA dilution with positive PCR: spiked with B. anthracis Sterne DNA
[2] = tested on: bacterial 16S rDNA
[3] = tested on: E. coli DNA; assay: PCR of seeded E. coli DNA after PIR treatment of aqueous HA samples (decade of dilution necessary for successful PCR); conditions: for Typical dilution decade for PCR / range of dilutions (dilution decade for PCR): PIR 1 M, aqueous humic samples seeded with E. coli DNA, HAi avg 6,500-12,300 depending on compound (Table 6 c2)
Experimental: Consideration of dilution factors for successful PCR must also be reviewed. In untreated soil extracts containing DNA of interest, successful PCR of the extracted DNA may occur when the polymerase inhibitor is diluted sufficiently such that inhibition is suppressed and PCR may occur. Typical values for the dilution decade at which PCR is successful in samples containing humic materials and DNA of interest are often around decade four (1×10^4). Accordingly, a dilution factor of 10,000 would be necessary for successful PCR in a typical soil extract/sample. This magnitude of dilution may also impact PCR sensitivity for DNA/species already present at low concentrations and result in not identifying an organism that was present in the original sample extract.
Using this approach for presenting the HA removal data allows for the determination of a PIR compound's effectiveness for HA removal (ε) and compatibility for application in PCR systems via dilution data for PCR.

[4] = Humic acid removal from soil extracts (Los Alamos Airport Soil) by PIR compounds; conditions: 100 mM PIR, HA 7,600 mg/L
Experimental: Aqueous samples of humic solutions were interrogated via fluorimetry on a Jobin Jvon Spex Fluorolog II with an excitation wavelength of 471 nm, an emission wavelength of 529 nm, with slits @ 10 nm bandpass, pmt bias of 950V, 1 second integration per reading and 10 readings per sample or <0.1% RSD per sample. Humic solutions were in 1×TAE buffer at RT with pH˜7. […] Samples from PIR experiments utilizing these materials were diluted, using 1×TAE, to concentrations falling within the linear response region representative of the humic material used.

[5] = tested on: seeded E. coli DNA; assay: PCR after PIR treatment of soil extracts (dilution to achieve PCR); conditions: for dilution decade at which PCR is achieved, on average: 100 mM PIR, soil extracts (Los Alamos Airport Soil)
[6] = Humic acid (HA) removal from aqueous commercial HA solutions by PIR compounds, fluorimetric HA determination; conditions: for performance as PIR compound (in words): commercial humic acid solutions
Experimental: Humic solutions were in 1×TAE buffer at RT with pH˜7. […] Samples from PIR experiments utilizing these materials were diluted, using 1×TAE, to concentrations falling within the linear response region representative of the humic material used.
In this study, when samples were interrogated for humic acid concentrations via fluorimetry, known concentrations of commercial humic acids were compared to known concentrations of humic standards.
FIG. 1 compares the HA removal from samples containing DNA of interest to the molar concentration of varied PIR compounds by plotting an HA reduction factor as the initial [HA] divided by [HA] following treatment with PIR compounds. The commercially available PIR kit, from Mo-BIO, is placed on FIG. 1 for comparison and was arbitrarily assigned a molar concentration of 1 for convenience. […] The data shown in FIG. 1 were generated from varied initial [HA], ranging from ˜5,000 to 300,000 mg/L HA. These varied initial [HA] values represent a “worst case” scenario and these are in comparison to initial [HA] in extractions from problematic soils generating humic acid concentrations typically less than 5,000 mg/L.
FIG. 2 plots the data from the same experiments represented in FIG. 1, but applying a different approach for data metric. FIG. 2 plots a dimensionless HA removal efficiency (or efficacy) value versus the decade of dilution necessary for successful PCR. The efficiency of HA removal is defined in equation 1 as the initial [HA] minus the final [HA] divided by the initial [HA]. This is essentially a percent removal approach.
Efficiency=[HA]i−[HA]f/[HA]; (1)
To further discriminate efficiency values greater than 0.99, the efficiency was subtracted from the integer value of 1, and the −log was taken of 1-efficiency to generate a non-negative value indicative of HA removal efficiency with greater level of discrimination and resolution of values with high degrees of HA removal. This is described by equation 2.

[7] = Stability of PIR compound in aqueous solution
[8] = PIR 1 M, aqueous humic samples seeded with E. coli DNA, HAi avg 6,500-12,300 depending on compound (Table 6 c2)

Cc1ncc(C[n+]2csc(CCO)c2C)c(N)n1 [THI, Thiamine Hydrochloride]
B. anthracis per rxn ([1]; soil “A”): ~10^4 cell equivalents
1st DNA dilution with positive PCR ([1]; soil “A”): 10^0
B. anthracis per rxn ([1]; soil “B”): ~10^4 cell equivalents
1st DNA dilution with positive PCR ([1]; soil “B”): 10^0
B. anthracis per rxn ([1]; soil “C”): ~10^4 cell equivalents
1st DNA dilution with positive PCR ([1]; soil “C”): 10^0
improvement of purity of DNA samples [2]: two orders of magnitude
increase in purity of soil DNA extract [2]: ≥ 10 fold
1st DNA dilution with positive PCR ([2]; Hydrochloride): 10^−2 and 10^−1
DNA dilution with positive PCR ([2]; Hydrochloride): 10^0 and 10^−1
Typical dilution decade for PCR [3]: 0
range of dilutions (dilution decade for PCR) [3]: 0-3
average efficiency values [4]: 1.4
average reduction factors [4]: 45
dilution decade at which PCR is achieved, on average [5]: 1.8
Average Efficiency, ε [6, 8]: 2.13
Avg Reduction Factor [6, 8]: 258

O=C(C[n+]1ccsc1)c1ccc([N+](=O)[O-])cc1.[Br-] [PTB-NO2, 4-Nitro-Phenacyl Thiazolium Bromide]
stability in aqueous solutions [7]: not stable
time to orange/red precipitate following dissolution ([7]; aqueous solutions): approximately 1 hour
performance as PIR compound (in words) [6]: did not perform well
performance as PIR compound (in words) ([6]; listed as PTB-N): poor performance

Cc1ncc(CO)c(CN)c1O [PDA, Pyridoxamine]
Decade of dilution ([3]; 1M PDA in phosphate buffer, 30 days storage, 4 C., dark, HA avg ~10,000 mg/L): 0
Decade of dilution ([3]; 1M PDA in phosphate buffer, 30 days storage, 25 C., dark, HA avg ~10,000 mg/L): 0
Decade of dilution ([3]; 1M PDA in phosphate buffer, 30 days storage, 25 C., light, HA avg ~10,000 mg/L): 0
Decade of dilution ([3]; 1M PDA in phosphate buffer, 30 days storage, −20 C., dark, HA avg ~10,000 mg/L): 0
Decade of dilution ([3]; 2.9M PDA in phosphate buffer, 30 days storage, 4 C., dark, HA avg ~10,000 mg/L): 0
Decade of dilution ([3]; 2.9M PDA in phosphate buffer, 30 days storage, 25 C., dark, HA avg ~10,000 mg/L): 1
Decade of dilution ([3]; 2.9M PDA in phosphate buffer, 30 days storage, 25 C., light, HA avg ~10,000 mg/L): 1
Decade of dilution ([3]; 2.9M PDA in phosphate buffer, 30 days storage, −20 C., dark, HA avg ~10,000 mg/L): 0
Decade of dilution ([3]; 2.9M PDA solutions freshly prepared (Day 0)): 0
Typical dilution decade for PCR [3]: 1
range of dilutions (dilution decade for PCR) [3]: 0-2
PCR products imaged after gel electrophoresis (band intensity) ([3]; aqueous HA samples seeded with E. coli DNA): often low and weak
dilution decade at which PCR is achieved, on average [5]: 1.0
PCR products following gel electrophoresis (band intensity) ([5]; PIR treated soil samples): typically weak
